Experimental data from article PMC10671052, “Naphthyl-Substituted Indole and Pyrrole Carboxylic Acids as Effective Antibiotic Potentiators—Inhibitors of Bacterial Cystathionine γ-Lyase” (International Journal of Molecular Sciences, 2023).

What was measured:
[1] = in vitro
Protocol: A test compound (final concentration 10 μM) was incubated at 37 °C in SGF, SIF, or human plasma for 2, 2, or 4 h, respectively. 100 μL aliquots were taken from each sample and 300 μL of acetonitrile containing an internal standard was added. […] All compounds were tested in triplicate. The percentage of a remaining compound after incubation was determined based on the chromatographic peak area of the sample after incubation and that of time zero (freshly prepared and injected) sample.

[2] = in vitro; assay type: in vitro ADME; details: human, plasma, pH 7.4, Fraction bound fb
Protocol: Plasma protein binding was assessed using RED device inserts with built-in cellulose acetate dialysis membranes (molecular weight cutoff: 8 kDa). The final concentration of the test compound in human plasma was 5 μM. The samples were prepared by placing 300 μL of human plasma into the plasma compartment of the RED device and 500 μL of phosphate-buffered saline (pH 7.4) into the buffer compartment. The RED device was fixed to a shaker, placed in a CO2 (5%) incubator, and incubated for 6 h at 37 °C. After an equilibration step, 100 μL aliquots were taken from each compartment; 100 μL of plasma was added to the buffer compartment aliquot and 100 μL of buffer was added to the plasma compartment aliquot. After mixing, 600 μL of acetonitrile containing an internal standard was added. […] All compounds were tested in duplicate. Fraction bound fb was determined via the following equation: fb (%) = [1 − (Cb/Cp)] × 100, where Cb is the concentration of an analyte in the buffer compartment (μM), and Cp is the concentration of the analyte in the plasma compartment (μM).

[3] = physchem; assay type: physicochemical; details: 25 °C, pH 7.4, aqueous buffer, kinetic from dmso stock, Solubility
Protocol: A stock solution of a compound (10 mM in DMSO, 10 μL) was added to 990 μL of 100 mM sodium phosphate buffer (pH 7.4) and incubated at 25 °C for 2 h with constant shaking. The suspension was filtered through the PVDF membrane filter (Merck Millipore, Burlington, MA, USA). To 320 µL of the filtrate, 80 µL of acetonitrile was added and mixed. The mixture was transferred to a vial and analyzed by ultra-high-performance liquid chromatography (UHPLC) with UV detection. Concentrations were calculated from a 5-point calibration curve. The calibration range was 1 to 100 μM. The controls were diclofenac and nicardipine. All compounds were tested in triplicate.

[4] = test system: A. baumannii GIMC5509:ABT-52Ts19; experiment: MIC of antibiotics alone and with potentiators, clinical isolate
Protocol: Overnight (ON) culture of a specific strain was grown in the liquid Luria–Bertani nutrient medium (LB broth, BD Difco) for 18 h at 37 °C, with agitation at 180 rpm using an Innova 44R orbital shaker (Eppendorf, Hamburg, Germany). After a certain period, 50 µL of the ON culture was transferred into 5 mL of the LB medium and grown for 3 h at 37 °C with agitation. Growth in the liquid medium was assessed by means of turbidity of the suspension, measured using a Densi-La-Meter II densitometer (Erba Lachema s.r.o., Brno, Czech Republic). Then, the bacterial suspension was diluted to the concentration 10^6 cells/mL with sterile LB and used as a seed culture [38, 39].
For the assessment of MICs, 96-well microtiter plates were utilized at 200 µL of a medium per well. Each well was filled with 100 µL of the seed culture. After that, 10 µL of a solution of each tested synthetic compound (potentiators) was added into each experimental well. Finally, 90 µL of twofold serial dilutions of an antibiotic in a sterile LB was added into individual wells.
As a positive control, we set up wells with 100 µL of the bacterial culture and 100 µL of the sterile LB medium. […] Negative-control wells contained 200 µL of the sterile medium. The plates were incubated in a thermostat for 18–20 h at 37 °C. The bacterial growth was assessed as optical density at 600 nm on a CLARIOstar microplate reader (BMG LABTECH GmbH, Ortenberg, Germany)).

[5] = target: S. aureus cystathionine-γ-lyase (bCSE) (Staphylococcus aureus, UniProt A0A0H3K724); experiment: IC50 assay: inhibition of H2S production by purified bCSE, WSP5 fluorescent probe; assay type: biochemical
S. aureus cystathionine-γ-lyase (bCSE), sequence (A0A0H3K724 entry or part of it): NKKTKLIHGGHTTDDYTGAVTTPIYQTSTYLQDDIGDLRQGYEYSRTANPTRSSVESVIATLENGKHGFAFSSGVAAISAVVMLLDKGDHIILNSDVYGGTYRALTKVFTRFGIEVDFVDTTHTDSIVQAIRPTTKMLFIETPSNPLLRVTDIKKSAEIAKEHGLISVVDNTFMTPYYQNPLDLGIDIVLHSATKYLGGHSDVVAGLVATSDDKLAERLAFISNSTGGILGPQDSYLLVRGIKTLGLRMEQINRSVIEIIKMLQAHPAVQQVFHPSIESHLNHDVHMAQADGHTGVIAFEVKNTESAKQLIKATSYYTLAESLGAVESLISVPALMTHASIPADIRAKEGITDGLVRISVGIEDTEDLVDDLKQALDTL
Outline: (§1)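 Purified recombinant enzyme (0.02 μM; E. coli-expressed) preincubated 40 min at 30 °C with inhibitor in 50 mM sodium phosphate pH 8.0, 10 μM PLP, 0.1% Tween 20 and 1.2 μM WSP-5. Started with 100 μM L-cysteine; H2S fluorescence (ex 500/em 530 nm) followed 12 h. IC50 from four-parameter fit, mean of ≥2 experiments.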

[6] = target: T1, human cystathionine-γ-lyase (hCSE) (Homo sapiens, UniProt P32929); experiment: IC50 assay: inhibition of H2S production by purified hCSE, WSP5 fluorescent probe; assay type: biochemical; details: purified hCSE 0.02 μM, 100 μM L-cysteine, WSP5 probe, mean ± SD; read-out: IC50 biochemical assay hCSE
T1 construct: His6-TEV (N, cleaved yes); host or cells: E. coli
T1 sequence (P32929 whole entry): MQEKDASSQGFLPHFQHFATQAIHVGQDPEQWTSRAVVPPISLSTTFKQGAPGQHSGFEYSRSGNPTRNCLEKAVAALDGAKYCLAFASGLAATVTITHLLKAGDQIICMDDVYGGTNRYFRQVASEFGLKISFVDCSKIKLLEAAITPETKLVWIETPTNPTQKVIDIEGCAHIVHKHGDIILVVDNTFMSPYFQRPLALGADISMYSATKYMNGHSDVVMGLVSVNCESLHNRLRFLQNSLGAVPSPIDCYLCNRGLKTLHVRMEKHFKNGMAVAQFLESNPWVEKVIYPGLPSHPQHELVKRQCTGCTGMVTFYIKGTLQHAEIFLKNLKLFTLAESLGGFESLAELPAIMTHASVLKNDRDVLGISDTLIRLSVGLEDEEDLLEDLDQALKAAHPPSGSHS
Outline: as §1

[7] = A. baumannii GIMC5509:ABT-52Ts19, potentiator 50 µg/mL

## O=C(O)c1cc2ccccc2n1Cc1cccc2ccccc12 [Compound 2a]
[1]; 4 h, 10 μM
  Stability in human plasma, % Remaining at 4 h: 97.6%
[1]; human, plasma, Stability in human plasma, % Remaining at 4 h
  remaining at 4 h, 10 μM: 97.6 ± 7.95%
[1]; simulated gi fluid, 2 h, 10 μM
  Stability in SGF, % Remaining at 2 h: 91.9%
  Stability in SIF, % Remaining at 2 h: 104.1%
[1]; simulated gi fluid, Stability in SGF
  remaining at 2 h, 10 μM: 91.9 ± 2.68%
[1]; simulated gi fluid, Stability in SIF
  remaining at 2 h, 10 μM: 104 ± 14.2%
[2]
  fraction unbound at 6 h, 5 μM: < 0.01
[3]
  solubility at 2 h: > 100 µM
[4]; A. baumannii GIMC5509:ABT-52Ts19, piperacillin + tazobactam, potentiator 50 µg/mL
  MIC of Tacillin in combination with potentiator: 64 µg/mL
[4]; [7]
  MIC of Cefepim in combination with potentiator: 256 µg/mL
  MIC of Meropenem in combination with potentiator: 32 µg/mL
[5]; IC50 (uM), bCSE enzymatic IC50, rounded, repeated in Table S13
  IC50: 65 µM
[5]; IC50 (uM), bCSE enzymatic IC50, rounded, repeated in Table S14
  IC50: 65 µM
[5]; IC50 (uM), bCSE enzymatic IC50, rounded, repeated in Table S15
  IC50: 65 µM
[5]; IC50 biochemical assay bCSE, purified bCSE 0.02 μM, 100 μM L-cysteine, WSP5 probe, mean ± SD
  IC50: 64.6 ± 3.1 µM
[6]
  IC50: 251 ± 16.6 µM
